From PubChem BioAssay (NCI)
Values joined by “and” are separate entries in the source; they are usually repeats but may differ in a detail not shown here. Equal values may be shown once.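 Tested at 5 concentrations; 48 h exposure; 96-well plates; endpoints linearly interpolated, else capped at highest concentration. Here, GI50 denotes the concentration required for 50% inhibition of growth. TGI is the concentration that stops growth completely.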

Columns and labels:
Assay in all cases: NCI tumour cell line growth inhibition, 48 h
[1] = system: SK-MEL-5 melanoma
[2] = system: 786-0 renal
[3] = system: A498 renal
[4] = system: SK-OV-3 ovarian
[5] = system: KM12 colon
[6] = system: OVCAR-4 ovarian
[7] = system: SF-295 CNS
[8] = system: BT-549 breast
[9] = system: PC-3 prostate
[10] = system: LOX IMVI melanoma

Compound | GI50 [1] | TGI [1] | GI50 [2] | TGI [2] | GI50 [3] | TGI [3] | GI50 [4] | TGI [4] | GI50 [5] | TGI [5] [µM] | GI50 [6] | TGI [6] [µM] | GI50 [7] | TGI [7] | GI50 [8] | TGI [8] | GI50 [9] | TGI [9] [µM] | GI50 [10] | TGI [10]
Cc1cc2c(C(N)=O)c(N)n(-c3c(C)ccc(O)c3C)c2nc1C | 4.89 µM | 26.3 µM | 3.37 µM | > 100 µM | 7.5 µM | 24.3 µM | 12.2 µM | 89 µM | 4.54 µM | > 100 | 0.998 µM | 8.03 | 0.871 µM | 35.4 µM | 3.06 µM | 16.7 µM | 32.7 µM | > 100 | 1.5 µM | 4.85 µM
CCCN(CCC)c1ccc(/C=N/NC(=O)c2cccnc2)c(OC)c1 | 14.3 µM | 28.1 µM | 32.7 µM | > 100 µM | 2.27 µM | 17.9 µM | 21.6 µM | 71.3 µM | 21.3 µM | 68.3 | 23.5 µM | 82.8 | 19 µM | 77.8 µM | 28.4 µM | 84.8 µM | 25.2 µM | > 100 | 23.6 µM | > 100 µM
Cc1ccc(C(=O)/C(=C\c2ccc([N+](=O)[O-])cc2)S(=O)Cc2ccc(Cl)cc2)cc1 (stereo not given) | 1.69 µM | 3.23 µM | 1.57 µM | 2.97 µM | 2.61 µM | 7.63 µM | 9.55 µM | 21.3 µM | 2.33 µM | 6.2 | 1.85 µM | 3.85 | 1.8 µM | 4.28 µM | 1.73 µM | 3.22 µM | 1.56 µM | 3.12 | 1.55 µM | 3.04 µM
N#Cc1c(N)nc(N2CCOCC2)c(C#N)c1-c1ccccn1 | > 100 µM | > 100 µM | > 100 µM | > 100 µM | > 100 µM | > 100 µM | > 85.9 µM | > 100 µM | > 100 µM | > 100 | > 100 µM | > 100 | > 100 µM | > 100 µM | > 100 µM | > 100 µM | > 100 µM | > 100 | > 100 µM | > 100 µM
O=C(O)c1c(=O)cccc2ssc12 | 2.41 µM | 5.85 µM | 1.88 µM | 3.44 µM | 1.98 µM | 3.54 µM | 1.74 µM | 3.26 µM | 1.9 µM | 3.72 | 2.21 µM | 4.87 | 1.67 µM | 3.17 µM | 1.68 µM | 3.12 µM | 1.83 µM | 3.58 | 1.78 µM | 3.42 µM
Cc1cn2c(/C=N/N=C(N)N)c(-c3ccccn3)nc2s1 | 7.95 µM | 25.8 µM | 6.56 µM | 17.9 µM | 17.8 µM | 34 µM | 26.8 µM | > 65 µM | 15.4 µM | 33.2 | 15.2 µM | 40.1 | 17.1 µM | 37.1 µM | 7.69 µM | 25.9 µM | 15.6 µM | 53.9 | 20.1 µM | 46.1 µM
CN(Cc1cc(Br)cc(Br)c1O)Cc1c(O)ccc2ccccc12 | – | 33.1 µM | – | 36.2 µM | – | 36.2 µM | – | 52 µM | – | 33.5 | – | 34.9 | – | 47.5 µM | – | 49 µM | – | 33.5 | – | 42.5 µM
CC(=[N-])N1CCC[C@@H](Nc2c3ccccc3nc3ccccc23)C1.[Cl][Pt].[NH-]CCC[NH-] | 0.127 µM | 0.291 µM | 3.89 µM | > 24.8 µM | 0.221 µM | 0.656 µM | 2.43 µM | > 100 µM | 2.49 µM | > 100 | 1.25 µM | 38.9 | 0.384 µM | > 100 µM | 2.9 µM | 64.7 µM | 3.57 µM | 44.9 | 2.25 µM | > 21.9 µM
N#Cc1cc(S(=O)(=O)Nc2nnc(-c3ccccc3)c(-c3ccccc3)n2)c(SCc2ccccc2)cc1Cl | 23 µM | 51.4 µM | 24.6 µM | 64.1 µM | 23.5 µM | 45.2 µM | 23.4 µM | 57.4 µM | 19.2 µM | 42.5 | 33.9 µM | 87 | 24.8 µM | 46.5 µM | 30.9 µM | 89.6 µM | 20 µM | 43.2 | 16.8 µM | 32.8 µM
CCn1c(-c2nonc2N)nc2c(C#CC(C)(C)O)ncc(OC[C@H]3CCCNC3)c21 | 14.3 µM | 31.2 µM | 0.46 µM | 16 µM | 0.0469 µM | 0.584 µM | 0.866 µM | > 82.6 µM | 4.54 µM | 63.8 | 31.4 µM | 92.2 | 0.794 µM | 22 µM | 6.85 µM | 28.6 µM | 10.4 µM | 70.8 | 17.8 µM | 45.6 µM
CC1(N)CCN(c2cnc(-c3cccc(Cl)c3Cl)c(N)n2)CC1 | 15.2 µM | 28.6 µM | 8.36 µM | 22 µM | 2.49 µM | 12 µM | 3.02 µM | 60.5 µM | 7.13 µM | > 100 | 7.47 µM | > 100 | 11.1 µM | 27.2 µM | 10.8 µM | 26.2 µM | 26.7 µM | > 100 | 15.3 µM | 30 µM
COc1cc2nccc(Oc3ccc(NC(=O)Nc4cc(C)on4)c(Cl)c3)c2cc1OC | 2.04 µM and 2.81 µM | 5.69 µM and > 10 µM | 3.43 µM and 4.11 µM | 23.3 µM and > 10 µM | 0.532 µM and 1.46 µM | 2.67 µM and 4.6 µM | 4.16 µM and 3.57 µM | 26.5 µM and > 10 µM | 0.178 µM and 0.25 µM | > 66.6 | 2.34 µM and 4.13 µM | > 65.2 | 2.08 µM and 3.08 µM | 14 µM and > 10 µM | 4.16 µM and 4.99 µM | 13.4 µM and > 10 µM | 4.74 µM and 5.91 µM | > 100 | 2.21 µM and 2.19 µM | 8.14 µM and > 10 µM
Oc1c(Cl)cc(Cl)cc1C(c1cc(Cl)cc(Cl)c1O)C(Cl)(Cl)Cl | 1.21 µM | 2.73 µM | 2.4 µM | 7.45 µM | 1.68 µM | 5.77 µM | 3.01 µM | 13.3 µM | 2.83 µM | 10.1 | 3.21 µM | 19 | 1.35 µM | 3.53 µM | 2.27 µM | 6.93 µM | 2.19 µM | 10.9 | 2.08 µM | 5.57 µM
